Data reported in patent US20100137240A1, “USE OF NUCLEOSIDE DERIVATIVES AS ANTI-KOI HERPES VIRUS IN FISH” (Katholieke Universiteit Leuven, priority 2007, published 2010).
In brackets after ≈: the same amount, converted by molar mass. Read-outs that look alike come from different tables or passages of the source.

Experiments:
Koi Herpes virus (KHV) [1] = test: Inhibition of Koi Herpes Virus infections in cell culture (plaque / cytopathic effect, crystal violet); type: cell-based, Koi herpesvirus (KHV); details: for IC50: Cyprinid herpesvirus 3, 120 h; for effect on KHV replication (in words): in vitro; for concentration resulting in complete inhibition of KHV replication: KHV in CCB cells, five days post infection
Procedure: KHV inhibitory activity can be readily detected using the assays described herein, as well as other assays known to those of ordinary skill in the art. In general, carp cells are infected with KHV and are incubated with the compounds to be tested for inhibitory activity. A more detailed description is provided in the examples.
(§1) Compounds for testing KHV-antiviral activity were dissolved in dimethylsulfoxide (DMSO) at a concentration of 20 mg/ml, then filtrated through a 0.45 μm filter to obtain a sterile solution. Common carp brain (CCB) cells were grown in minimum essential medium (MEM, commercially available from Invitrogen) containing 4.5 g/l glucose (D-glucose monohydrate, Merck) and 10% fetal calf serum (FCS, commercially available from BioWhittaker). Cells were incubated at 25° C. in a humid atmosphere containing 5% CO2. Confluent cell monolayers grown in 24 wells cluster dishes were inoculated with 200 plaque forming units (PFU) of KHV in 0.2 ml of serum free Dulbecco's Modified Eagle Medium (DMEM, commercially available from Invitrogen). […] Five days post infection (pi), viral plaques or virus induced cytopathic effects were observed by staining cells with a crystal violet (Merck) solution.
as §1, with “Alternatively, PMEDAP was” for “Compounds for testing KHV-antiviral activity were”, “DMEM and propyleneglycol (33.3%)/ethanol(8.3%) (PE buffer) respectively,” for “dimethylsulfoxide (DMSO)”, “10 mg/ml.” for “20 mg/ml, then filtrated through a 0.45 μm filter to obtain a sterile solution.”, “modified eagle medium” for “Modified Eagle Medium”

Koi Herpes virus (KHV) [2] = test: Pulse chase treatment with PMEDAP on KHV growth in vitro; type: cell-based, Koi herpesvirus (KHV); details: 50 μg/ml PMEDAP for only the first 24 hours post infection, CCB cells, observed 5 days post-infection
Procedure: PMEDAP was dissolved in DMSO at a concentration of 20 mg/ml then filtrated through a 0.45 μm filter. CCB cells were grown in 24-well culture plates in MEM containing 4.5 g/l glucose and 10% FCS. Cells were inoculated with 200 PFU of KHV in 0.2 ml of serum free DMEM. After 2 hours incubation, cells were overlaid with DMEM (4.5 g/l glucose, 10% FCS) containing 50 μg/ml of PMEDAP. Mock-infected cells and untreated infected cells (ND) were included as negative controls. At successive intervals pi, cells were washed twice with PBS then overlaid with complete DMEM. Five days pi, viral plaques were observed by a crystal violet assay.

koi carps [3] = test: In vivo koi carps toxicity experiment, intraperitoneal injection; parameters: species or system koi carps (Cyprinus carpio koi); details: 50 mg/kg intraperitoneal, 10 consecutive days
Procedure: Naïve adult koi carps were kept in 150-liter tanks with filtrated water maintained at 23° C. One group (n=12) was treated for 10 consecutive days, by intraperitoneal injection of PMEDAP (50 mg/kg) dissolved in 0.2 ml of DMEM. The other group (n=12), used as negative control, was injected with 0.2 ml DMEM. After 10 days, all fish were examined and weighed. Three fishes of each group were euthanized. Liver and kidney explants were treated for anatomopathology analysis.

koi carps [4] = test: In vivo koi carps toxicity experiment, intramuscular injection; parameters: species or system koi carps (Cyprinus carpio koi); details: for Microscopic lesions: liver and kidney explants
Procedure: An additional experiment was performed as following: Naive adult koi carps were kept in 60-liter tanks with filtrated water maintained at 23° C. […] (5 koi per group) were treated for 10 consecutive days, by intramuscular injection of 20 mg/kg PMEDAP ((“PMEDAP 20”) or 50 mg/kg PMEDAP (“PMEDAP 50”)) dissolved in 0.1 ml of DMEM. Two other groups (5 koi per group), used as negative controls, were injected with 0.1 ml of DMEM. After 10 days, all fish were examined and weighed. Three fishes of each group were euthanized. Liver and kidney explants were treated for anatomopathology analysis.

KHV infections = details: Ilouze et al., FEBS Letters (2006) 580(18) 4473-4478; cited from earlier work
[5] = KHV (200 PFU) in CCB cells, compounds dissolved in DMSO, read five days post infection, read-out: IC50
[6] = 20 mg/kg intramuscular, 10 consecutive days (PMEDAP 20)
[7] = 50 mg/kg intramuscular, 10 consecutive days (PMEDAP 50)

SMILES: O=c1[nH]c(=O)n([C@H]2C[C@H](O)[C@@H](CO)O2)cc1/C=C/Br [BVDU (brivudin), brivudin]
- IC50 (Koi Herpes virus (KHV) [1]): 100 mg/L (≈ 300 µM)
- effect on KHV replication (in words) (Koi Herpes virus (KHV) [1]): no effect or a very limited effect

SMILES: Nc1nc(O)c2ncn(COC(CO)CO)c2n1 [GCV (ganciclovir), ganciclovir]
- IC50 (Koi Herpes virus (KHV) [1]; [5]): 100 mg/L (≈ 392 µM)
- effect on KHV replication (in words) (Koi Herpes virus (KHV) [1]): no effect or a very limited effect

SMILES: Nc1ccn(C[C@@H](CO)OCP(=O)(O)O)c(=O)n1 [HPMPC, cidofovir]
- IC50 (Koi Herpes virus (KHV) [1]; [5]): 50 mg/L (≈ 179 µM)
- effect on KHV replication (in words) (Koi Herpes virus (KHV) [1]): no effect or a very limited effect

SMILES: O=C(O)P(=O)(O)O [PFA (foscarnet), foscarnet]
- IC50 (Koi Herpes virus (KHV) [1]; [5]): > 100 mg/L

SMILES: Nc1ncnc2c1ncn2CCOCP(=O)(O)O [PMEA (adefovir), 9-[2-phosphonylmethoxyethyl]adenine]
- IC50 (Koi Herpes virus (KHV) [1]; [5]): 6.5 mg/L (≈ 23.8 µM)
- concentration resulting in complete inhibition of KHV replication (Koi Herpes virus (KHV) [1]): 25 µg/mL

SMILES: Nc1nc(N)c2ncn(CCOCP(=O)(O)O)c2n1 [PMEDAP, 9-(2-phosphonylmethoxyethyl)-2,6-diaminopurine]
- IC50 (Koi Herpes virus (KHV) [1]; [5]): 4.8 mg/L (≈ 16.7 µM)
- concentration resulting in complete inhibition of KHV replication (Koi Herpes virus (KHV) [1]): 12.5 µg/mL
- effect on KHV replication (in words) (Koi Herpes virus (KHV) [1]): highly active
- inhibition of virus induced cytopathic effect (Koi Herpes virus (KHV) [2]): complete inhibition
- Clinical signs (koi carps [3]): None
- Survival (%) (koi carps [3]): 100%
- mean weight of fishes, PMEDAP versus DMEM (koi carps [3]): statistically similar
- toxic effect (in words) (koi carps [3]): did not reveal any toxic effect
- Microscopic lesions (koi carps [3]; liver and kidney explants): None
- Mean final weight (koi carps [3]; mean initial weight 66.1 g): 71.5 g
- Clinical signs (koi carps [4]; [6]): None
- Survival (%) (koi carps [4]; [6]): 100%
- Microscopic lesions (koi carps [4]; [6]): None
- Mean final weight (koi carps [4]; 20 mg/kg intramuscular, 10 consecutive days (PMEDAP 20), mean initial weight 23.1 g): 21.3 g
- Clinical signs (koi carps [4]; [7]): None
- Survival (%) (koi carps [4]; [7]): 100%
- Microscopic lesions (koi carps [4]; [7]): None
- Mean final weight (koi carps [4]; 50 mg/kg intramuscular, 10 consecutive days (PMEDAP 50), mean initial weight 16.3 g): 15.3 g

SMILES: Nc1nc2c(ncn2COCCO)c(=O)[nH]1 [acyclovir]
- effect on KHV replication (in words) (Koi Herpes virus (KHV) [1]): no effect or a very limited effect
- activity against KHV infections (in words) (KHV infections): inactive
